Test results taken from patent US9708314B2, “Heterocyclic amide compound” (NISSAN CHEMICAL INDUSTRIES, LTD., priority 2013, dated 2017).

Experiments:
Assay type in all cases: in vivo
[1] = test system: Echinochloa oryzacola Vasing.; assay: Test Example 1: herbicidal activity, application before weed generation in submerged conditions; settings: Application herbicide amount 320 g/ha; Seventeenth Table
Method in brief: (§1)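 Pre-emergence water-surface application under 4 cm flooding, same day as sowing, with rice transplanted at 2.5 leaf stage. Dose given as g/ha. Plants grown at 25° C. to 30° C. and rated three weeks later on a 0 (≤5%) to 5 (≥90%) herbicidal-ratio scale.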

Monochoria vaginalis [2] = assay: as above; settings: Application herbicide amount 320 g/ha; Seventeenth Table
Method in brief: as §1

Scirpus juncoides [3] = assay: as above; settings: Application herbicide amount 320 g/ha; Seventeenth Table
Method in brief: as §1

[4] = test system: Echinochloa oryzacola Vasing.; assay: Test Example 2: herbicidal activity, application during weed generation in submerged conditions; settings: Eighteenth Table; application herbicide amount 320 g/ha
Method in brief: (§2)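 Scored three weeks post-application on a 0–5 scale (5: ≥90% herbicidal ratio, almost withered; 0: ≤5%). Plants raised from mixed-sown seed in submerged alluvial soil (4 cm water), 25–30 °C greenhouse; water-diluted emulsion applied onto water surface at one- to two-leaf stage, dose in g/ha.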

Monochoria vaginalis [5] = assay: as above; settings: Eighteenth Table; application herbicide amount 320 g/ha
Method in brief: as §2

Scirpus juncoides [6] = assay: as above; settings: Eighteenth Table; application herbicide amount 320 g/ha
Method in brief: as §2

[7] = test system: directly sowed Oryza sativa; assay: Test Example 3: effect on crop by application to foliage (Wagner pot, water depth 0.1-0.5 cm); settings: Nineteenth Table; application to foliage; application herbicide amount 320 g/ha
Method in brief: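 Visual 0–5 rating of herbicidal ratio, taken 3 weeks after foliar spray of a diluted emulsion formulation at rates expressed as g/ha. Plants had been sown in alluvial soil under 0.1–0.5 cm water and grown 14 days at 25–30 °C under glass before application.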

| SMILES | A: Echinochloa oryzicola Vasing. (herbicidal effect grade) [1] | C: Monochoria vaginalis (herbicidal effect grade) (Monochoria vaginalis [2]) | B: Scirpus juncoides (herbicidal effect grade) (Scirpus juncoides [3]) | A (Echinochloa oryzicola Vasing.) herbicidal ratio grade [4] | C (Monochoria vaginalis) herbicidal ratio grade (Monochoria vaginalis [5]) | B (Scirpus juncoides) herbicidal ratio grade (Scirpus juncoides [6]) | b (effect on crop grade) [7] |
| --- | --- | --- | --- | --- | --- | --- | --- |
| Cn1nnnc1NC(=O)c1ccc(C(F)(F)F)n2c(Br)nnc12 [2-009] | 3 (Herbicidal ratio of 40% or more and less than 70%) | 4 (Herbicidal ratio of 70% or more and less than 90%) | 3 (Herbicidal ratio of 40% or more and less than 70%) | 3 (Herbicidal ratio of 40% or more and less than 70%) | 3 (Herbicidal ratio of 40% or more and less than 70%) | 2 (Herbicidal ratio of 20% or more and less than 40%) | 4 (Herbicidal ratio of 70% or more and less than 90%) |
| COCc1nnc2c(C(=O)Nc3nnnn3C)ccc(C(F)(F)F)n12 [2-010, 3-(Methoxymethyl)-N-(1-methyl-1H-tetrazol-5-yl)-5-(trifluoromethyl)-[1,2,4]triazol o[4,3-a]pyridine-8-carboxamide] | 5 (Herbicidal ratio of 90% or more (almost completely withered)) | 4 (Herbicidal ratio of 70% or more and less than 90%) | 5 (Herbicidal ratio of 90% or more (almost completely withered)) | 5 (Herbicidal ratio of 90% or more (almost completely withered)) | 4 (Herbicidal ratio of 70% or more and less than 90%) | 4 (Herbicidal ratio of 70% or more and less than 90%) | 5 (Herbicidal ratio of 90% or more (almost completely withered)) |
| COc1ccc(-c2nnc3c(C(=O)Nc4nnnn4C)ccc(C(F)(F)F)n23)cc1 [2-011] | 5 (Herbicidal ratio of 90% or more (almost completely withered)) | 5 (Herbicidal ratio of 90% or more (almost completely withered)) | 5 (Herbicidal ratio of 90% or more (almost completely withered)) | 4 (Herbicidal ratio of 70% or more and less than 90%) | 4 (Herbicidal ratio of 70% or more and less than 90%) | 3 (Herbicidal ratio of 40% or more and less than 70%) | 5 (Herbicidal ratio of 90% or more (almost completely withered)) |
| Cn1nnnc1NC(=O)c1ccc(C(F)(F)F)n2c(-c3ccc(Cl)cc3)nnc12 [2-012] | 5 (Herbicidal ratio of 90% or more (almost completely withered)) | 3 (Herbicidal ratio of 40% or more and less than 70%) | 4 (Herbicidal ratio of 70% or more and less than 90%) | 4 (Herbicidal ratio of 70% or more and less than 90%) | 5 (Herbicidal ratio of 90% or more (almost completely withered)) | 5 (Herbicidal ratio of 90% or more (almost completely withered)) | 2 (Herbicidal ratio of 20% or more and less than 40%) |
| CSc1nnc2c(C(=O)Nc3nnnn3C)ccc(C(F)(F)F)n12 [2-013] | 5 (Herbicidal ratio of 90% or more (almost completely withered)) | 5 (Herbicidal ratio of 90% or more (almost completely withered)) | 4 (Herbicidal ratio of 70% or more and less than 90%) | 5 (Herbicidal ratio of 90% or more (almost completely withered)) | 2 (Herbicidal ratio of 20% or more and less than 40%) | 3 (Herbicidal ratio of 40% or more and less than 70%) | 5 (Herbicidal ratio of 90% or more (almost completely withered)) |
| COCCOCc1nnc2c(C(=O)Nc3nnnn3C)ccc(C(F)(F)F)n12 [2-014] | 5 (Herbicidal ratio of 90% or more (almost completely withered)) | 5 (Herbicidal ratio of 90% or more (almost completely withered)) | 5 (Herbicidal ratio of 90% or more (almost completely withered)) | 5 (Herbicidal ratio of 90% or more (almost completely withered)) | 5 (Herbicidal ratio of 90% or more (almost completely withered)) | 5 (Herbicidal ratio of 90% or more (almost completely withered)) | 5 (Herbicidal ratio of 90% or more (almost completely withered)) |
| Cn1nnnc1NC(=O)c1ccc(C(F)(F)F)n2c(COCC(F)(F)F)nnc12 [2-015] | 5 (Herbicidal ratio of 90% or more (almost completely withered)) | 5 (Herbicidal ratio of 90% or more (almost completely withered)) | 5 (Herbicidal ratio of 90% or more (almost completely withered)) | 4 (Herbicidal ratio of 70% or more and less than 90%) | 4 (Herbicidal ratio of 70% or more and less than 90%) | 5 (Herbicidal ratio of 90% or more (almost completely withered)) | 4 (Herbicidal ratio of 70% or more and less than 90%) |
| CCC(C)c1nnc2c(C(=O)Nc3nnnn3C)ccc(C(F)(F)F)n12 (stereo not drawn) [2-016] | 5 (Herbicidal ratio of 90% or more (almost completely withered)) | 5 (Herbicidal ratio of 90% or more (almost completely withered)) | 5 (Herbicidal ratio of 90% or more (almost completely withered)) | 5 (Herbicidal ratio of 90% or more (almost completely withered)) | 5 (Herbicidal ratio of 90% or more (almost completely withered)) | 5 (Herbicidal ratio of 90% or more (almost completely withered)) | 5 (Herbicidal ratio of 90% or more (almost completely withered)) |
| Cc1cc(-c2nnc3c(C(=O)Nc4nnnn4C)ccc(C(F)(F)F)n23)no1 [2-017] | 5 (Herbicidal ratio of 90% or more (almost completely withered)) | 4 (Herbicidal ratio of 70% or more and less than 90%) | 3 (Herbicidal ratio of 40% or more and less than 70%) | 5 (Herbicidal ratio of 90% or more (almost completely withered)) | 4 (Herbicidal ratio of 70% or more and less than 90%) | 4 (Herbicidal ratio of 70% or more and less than 90%) | 5 (Herbicidal ratio of 90% or more (almost completely withered)) |
| CCCc1nnc2c(C(=O)Nc3nnnn3C)ccc(C(F)(F)F)n12 [2-019] | 5 (Herbicidal ratio of 90% or more (almost completely withered)) | 4 (Herbicidal ratio of 70% or more and less than 90%) | 5 (Herbicidal ratio of 90% or more (almost completely withered)) | 4 (Herbicidal ratio of 70% or more and less than 90%) | 4 (Herbicidal ratio of 70% or more and less than 90%) | 3 (Herbicidal ratio of 40% or more and less than 70%) | 5 (Herbicidal ratio of 90% or more (almost completely withered)) |
| Cn1nnnc1NC(=O)c1ccc(C(F)(F)F)n2c(COc3ccccc3)nnc12 [2-020] | 3 (Herbicidal ratio of 40% or more and less than 70%) | 2 (Herbicidal ratio of 20% or more and less than 40%) | 2 (Herbicidal ratio of 20% or more and less than 40%) | 2 (Herbicidal ratio of 20% or more and less than 40%) | 0 (Herbicidal ratio of 5% or less (almost no effect)) | 2 (Herbicidal ratio of 20% or more and less than 40%) | 4 (Herbicidal ratio of 70% or more and less than 90%) |
| Cn1nnnc1NC(=O)c1ccc(C(F)(F)F)n2c(C3CCCC3)nnc12 [2-021] | 5 (Herbicidal ratio of 90% or more (almost completely withered)) | 5 (Herbicidal ratio of 90% or more (almost completely withered)) | 5 (Herbicidal ratio of 90% or more (almost completely withered)) | 5 (Herbicidal ratio of 90% or more (almost completely withered)) | 4 (Herbicidal ratio of 70% or more and less than 90%) | 4 (Herbicidal ratio of 70% or more and less than 90%) | 5 (Herbicidal ratio of 90% or more (almost completely withered)) |
